Results taken from ChEMBL document CHEMBL3991601, “The target landscape of clinical kinase drugs” (Science, 2017).
Activity calls are given as the source filed them.

What was measured:
[1] = molecular target: MAP/microtubule affinity-regulating kinase 3 (Homo sapiens, UniProt P27448)
[2] = molecular target: T1, ATP-dependent RNA helicase DHX30 (Homo sapiens, UniProt Q7L2E3)
T1 sequence (Q7L2E3 whole entry): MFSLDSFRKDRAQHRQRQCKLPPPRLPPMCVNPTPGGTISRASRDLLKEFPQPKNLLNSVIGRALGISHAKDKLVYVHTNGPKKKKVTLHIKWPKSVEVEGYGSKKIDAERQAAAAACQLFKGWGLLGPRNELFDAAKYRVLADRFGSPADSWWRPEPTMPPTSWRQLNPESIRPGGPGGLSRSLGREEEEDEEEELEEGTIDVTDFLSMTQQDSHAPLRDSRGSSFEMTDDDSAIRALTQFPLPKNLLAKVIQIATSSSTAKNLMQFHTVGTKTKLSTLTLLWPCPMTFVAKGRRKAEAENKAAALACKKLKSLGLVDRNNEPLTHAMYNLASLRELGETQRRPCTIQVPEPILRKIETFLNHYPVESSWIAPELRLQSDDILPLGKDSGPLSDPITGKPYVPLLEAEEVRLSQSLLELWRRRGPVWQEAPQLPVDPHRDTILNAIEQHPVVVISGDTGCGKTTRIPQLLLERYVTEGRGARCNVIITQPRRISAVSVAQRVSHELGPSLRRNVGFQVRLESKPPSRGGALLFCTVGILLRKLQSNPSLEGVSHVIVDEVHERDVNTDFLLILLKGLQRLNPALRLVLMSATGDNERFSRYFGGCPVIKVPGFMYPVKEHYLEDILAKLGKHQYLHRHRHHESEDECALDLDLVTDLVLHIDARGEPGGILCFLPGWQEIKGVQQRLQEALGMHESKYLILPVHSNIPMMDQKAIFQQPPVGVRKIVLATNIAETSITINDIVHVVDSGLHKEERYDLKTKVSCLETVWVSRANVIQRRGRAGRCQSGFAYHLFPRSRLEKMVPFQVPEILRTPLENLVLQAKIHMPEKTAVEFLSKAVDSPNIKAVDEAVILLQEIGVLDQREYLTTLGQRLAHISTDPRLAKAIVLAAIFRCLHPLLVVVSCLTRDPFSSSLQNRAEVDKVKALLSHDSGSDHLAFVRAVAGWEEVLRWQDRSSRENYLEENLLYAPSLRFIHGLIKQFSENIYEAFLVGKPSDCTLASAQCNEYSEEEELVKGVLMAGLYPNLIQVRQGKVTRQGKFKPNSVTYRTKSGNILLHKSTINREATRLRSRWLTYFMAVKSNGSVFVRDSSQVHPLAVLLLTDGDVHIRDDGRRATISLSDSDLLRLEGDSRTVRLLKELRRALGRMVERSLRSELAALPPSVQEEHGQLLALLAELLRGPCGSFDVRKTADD

[3] = molecular target: GTP-binding nuclear protein Ran (Homo sapiens, UniProt P62826)
[4] = molecular target: T2, Serine/threonine-protein kinase D2 (Homo sapiens, UniProt Q9BZL6)
T2 sequence (Q9BZL6 whole entry): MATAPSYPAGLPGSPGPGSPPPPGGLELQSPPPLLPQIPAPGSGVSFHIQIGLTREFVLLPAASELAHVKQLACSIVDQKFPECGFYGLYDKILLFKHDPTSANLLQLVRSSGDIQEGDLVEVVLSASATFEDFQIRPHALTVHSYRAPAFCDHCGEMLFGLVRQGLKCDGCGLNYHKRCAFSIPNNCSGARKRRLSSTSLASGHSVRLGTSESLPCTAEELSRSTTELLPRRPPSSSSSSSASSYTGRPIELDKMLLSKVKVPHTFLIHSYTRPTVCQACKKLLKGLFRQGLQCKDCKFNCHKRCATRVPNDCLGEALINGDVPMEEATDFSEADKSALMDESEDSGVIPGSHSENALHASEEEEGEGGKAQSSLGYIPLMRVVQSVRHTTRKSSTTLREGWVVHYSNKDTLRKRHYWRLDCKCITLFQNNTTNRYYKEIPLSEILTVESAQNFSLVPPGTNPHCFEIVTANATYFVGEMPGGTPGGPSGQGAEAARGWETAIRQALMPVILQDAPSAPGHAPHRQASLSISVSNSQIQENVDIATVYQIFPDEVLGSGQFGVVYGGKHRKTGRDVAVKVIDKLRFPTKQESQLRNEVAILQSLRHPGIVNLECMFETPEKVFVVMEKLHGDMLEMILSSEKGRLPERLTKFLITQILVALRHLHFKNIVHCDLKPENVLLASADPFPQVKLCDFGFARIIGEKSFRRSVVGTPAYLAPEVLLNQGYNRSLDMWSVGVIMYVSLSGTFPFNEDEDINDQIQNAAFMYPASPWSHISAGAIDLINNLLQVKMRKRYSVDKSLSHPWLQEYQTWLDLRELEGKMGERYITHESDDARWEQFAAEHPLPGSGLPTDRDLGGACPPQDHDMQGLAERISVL
Also: in the data inactive means no Kd found up to 30 µM.

MAP/microtubule affinity-regulating kinase 3, sequence (P27448 whole entry): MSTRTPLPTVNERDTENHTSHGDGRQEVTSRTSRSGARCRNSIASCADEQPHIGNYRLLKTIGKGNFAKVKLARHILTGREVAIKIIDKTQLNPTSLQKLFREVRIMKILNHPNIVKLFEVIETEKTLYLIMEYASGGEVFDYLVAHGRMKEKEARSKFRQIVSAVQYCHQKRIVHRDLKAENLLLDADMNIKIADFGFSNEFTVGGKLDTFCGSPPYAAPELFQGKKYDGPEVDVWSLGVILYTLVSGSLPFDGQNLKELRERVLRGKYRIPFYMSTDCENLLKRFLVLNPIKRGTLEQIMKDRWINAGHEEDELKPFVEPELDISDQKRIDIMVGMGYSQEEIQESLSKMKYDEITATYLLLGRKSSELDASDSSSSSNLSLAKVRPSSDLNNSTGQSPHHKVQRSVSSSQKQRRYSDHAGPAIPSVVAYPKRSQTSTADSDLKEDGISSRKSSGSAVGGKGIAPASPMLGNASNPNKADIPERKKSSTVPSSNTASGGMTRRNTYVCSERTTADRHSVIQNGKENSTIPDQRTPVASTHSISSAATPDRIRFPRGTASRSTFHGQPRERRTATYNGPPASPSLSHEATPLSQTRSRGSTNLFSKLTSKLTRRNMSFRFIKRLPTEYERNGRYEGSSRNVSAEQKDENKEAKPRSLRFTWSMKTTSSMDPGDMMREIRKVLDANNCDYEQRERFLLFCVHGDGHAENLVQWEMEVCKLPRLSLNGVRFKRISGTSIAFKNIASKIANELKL

Kd [1]	Kd [2]	Kd [3]	Kd [4]	Structure (SMILES)
0.133 µM (active)	> 30 µM (inactive)	> 30 µM (inactive)	1.37 µM (active)	CC(C)c1cc(CNc2nc(Nc3cc(C4CC4)[nH]n3)cc(N3CCN(C)CC3)n2)on1 [XL-228]
38.5 µM (active)	> 30 µM (inactive)	> 30 µM (inactive)	0.572 µM (active)	C[C@@H](N)c1ccc(C(=O)Nc2ccnc3[nH]ccc23)cc1 [Y-39983]
> 30 µM (inactive)	> 30 µM (inactive)	> 30 µM (inactive)	0.474 µM (active)	CN1C/C=C/CCOc2cccc(c2)-c2ccnc(n2)Nc2cccc(c2)C1 [ZOTIRACICLIB]
